# Test results: patent US10039779B2, “Combination formulation of two antiviral compounds” (priority 2013, dated 2018)
# Legend:
# [1] = pH-solubility profile and solubility in simulated intestinal media; assay type: physicochemical
# Description: Excess solid ledipasvir was added to a range of pH-adjusted aqueous solutions (titrated with HCl or NaOH) and stirred for 48 hours at room temperature. The suspensions were then filtered through regenerated cellulose syringe filters. The pH value of the supernatant was measured, and the supernatant was diluted as appropriate with 50:50 H2O+0.1% TFA:ACN and assayed for ledipasvir content by the HPLC-UV method.
# Solubility of ledipasvir amorphous free base was assessed in three types of simulated intestinal fluids at pH 6.5 or pH 5.0; and simulated intestinal bile salt and lecithin mixture (SIBLM), pH 6.4. Excess solid ledipasvir was added to the respective SIFs and stirred for 48 hours at room temperature. The resulting suspensions were then filtered through regenerated cellulose syringe filters. The supernatant was diluted as appropriate with 50:50 H2O+0.1% TFA:ACN and assayed for ledipasvir content by the HPLC-UV method.
# [2] = as above; assay type: physicochemical; remark: listed apart in the source
# [3] = Compatibility/stability of sofosbuvir and ledipasvir:copovidone solid dispersion blend; assay type: physicochemical; details: for Strength / Total Impurity Content: blend pellets, open glass vials
# Description: The compatibility of sofosbuvir anhydrous crystalline drug substance was evaluated with the ledipasvir:copovidone solid dispersion. A blend of the sofosbuvir and ledipasvir:copovidone (1:1) solid dispersion was prepared at a ratio representative of the final 400 mg sofosbuvir/90 mg ledipasvir tablets. […]
# [4] = Ledipasvir single-dose PK by concomitant food intake status; assay type: in vivo; details: for CL/F: Ledipasvir 30 mg single dose, N = 8, mean
# HCV = experiment: Dose selection: antiviral response and Emax PK/PD modeling; assay type: in vivo, Hepatitis C virus; details: for breakthrough (BT) rate: in combination with other therapeutic agents
# Description: The sofosbuvir dose selected for the tablet formulation is 400 mg once daily. Support for the 400 mg sofosbuvir dose can be derived from Emax PK/PD modeling with early virological and human exposure data which also supports the selection of a 400 mg sofosbuvir dose over others tested.
# The mean sofosbuvir major metabolite AUCtau for the 400 mg sofosbuvir dose is associated with approximately 77% of the maximal HCV RNA change from baseline achievable as determined by this model, a value which is on the cusp of the plateau of the exposure-response sigmoidal curve. […] Therefore, given that sofosbuvir exposure with 200 mg tablets appears dose-proportional with single doses up to 1200 mg, doses below 400 mg are expected to yield considerable reductions in the magnitude of HCV RNA change from baseline.
# The sofosbuvir dose of 400 mg once daily was associated with higher SVR rates in genotype 1 HCV infected patients as compared to the 200 mg once daily dose when given in conjunction with additional HCV therapeutics for 24 weeks. Safety and tolerability appeared similar across both dose levels. In addition, when sofosbuvir 400 mg once daily plus other HCV therapeutics were given to genotype 2 or 3 HCV infected patients, 100% SVR24 was observed.
# The maximum median HCV RNA log 10 reduction was 3 or greater for all cohorts dosed with ≥3 mg of ledipasvir. […] Therefore, 30 mg and 90 mg of ledipasvir were selected as the dose for the formulations described herein.
# Therefore, the 90 mg dose of ledipasvir may confer a greater antiviral coverage that prevents viral breakthrough.
# [5] = Pharmacokinetics of sofosbuvir and ledipasvir alone or in combination; assay type: in vivo; design: AUC(0-inf): concentration or dose not given beside the values; details: for AUC(0-inf): plasma
# [6] = PK of Sofosbuvir/Ledipasvir tablets fasted or with meals; details: for AUC(0-inf) / AUC(0-t) / Cmax: plasma, po, plasma analyte, n = 29, mean (% CV); for AUC(0-inf): AUCinf; for AUC(0-t): AUClast
# [7] = nonlinear least-square regression fit of pH-solubility profile
# [8] = Sofosbuvir + Ledipasvir vs single agent alone
# [9] = po, plasma analyte, Ledipasvir alone, n = 17, mean (% CV)
# [10] = Sofosbuvir/Ledipasvir Tablet, Fasted
# [11] = Sofosbuvir/Ledipasvir Tablet, High-Calorie/High-Fat Meal
# [12] = Sofosbuvir/Ledipasvir Tablet, Moderate-Fat Meal
smiles,measurement,setting,value
"COC(=O)N[C@H](C(=O)N1CC2(CC2)C[C@H]1c1ncc(-c2ccc3c(c2)C(F)(F)c2cc(-c4ccc5nc([C@@H]6[C@H]7CC[C@H](C7)N6C(=O)[C@@H](NC(=O)OC)C(C)C)[nH]c5c4)ccc2-3)[nH]1)C(C)C [Ledipasvir, (1-{3-[6-(9,9-difluoro-7-{2-[5-(2-methoxycarbonylamino-3-methyl-butyryl)-5-aza-spiro[2.4]hept-6-yl]-3H-imidazol-4-yl}-9H-fluoren-2-yl)-1H-benzoimidazol-2-yl]-2-aza-bicyclo[2.2.1]heptane-2-carbonyl}-2-methyl-propyl)-carbamic acid methyl ester]",BCS classification,[1],BCS Class 2
same,pKa1,[1]; [7],5.0
same,pKa2,[1]; [7],4.0
same,permeability,[2],high permeability
same,degradation in blend with the other active,"[3]; 40° C./75% RH and 60° C./ambient humidity, two and four weeks",no degradation was observed
same,Strength,"[3]; 45° C./75% RH, 0 weeks",98.8%
same,Total Impurity Content,"[3]; 45° C./75% RH, 0 weeks",0.0%
same,Strength,"[3]; 45° C./75% RH, 2 weeks",96.9%
same,Total Impurity Content,"[3]; 45° C./75% RH, 2 weeks",0.0%
same,Strength,"[3]; 45° C./75% RH, 4 weeks",97.1%
same,Total Impurity Content,"[3]; 45° C./75% RH, 4 weeks",0.0%
same,Strength,"[3]; 60° C., 0 weeks",98.8%
same,Total Impurity Content,"[3]; 60° C., 0 weeks",0.0%
same,Strength,"[3]; 60° C., 1 week",99.2%
same,Total Impurity Content,"[3]; 60° C., 1 week",0.0%
same,Strength,"[3]; 60° C., 2 weeks",99.6%
same,Total Impurity Content,"[3]; 60° C., 2 weeks",0.0%
same,Strength,"[3]; 60° C., 4 weeks",98.9%
same,Total Impurity Content,"[3]; 60° C., 4 weeks",0.0%
same,AUCinf GLSM Ratio (Fed/Fasted),[4]; Ledipasvir 30 mg,55.55%
same,AUClast GLSM Ratio (Fed/Fasted),[4]; Ledipasvir 30 mg,56.71%
same,Cmax GLSM Ratio (Fed/Fasted),[4]; Ledipasvir 30 mg,54.90%
same,CL/F,[4]; fasted,"17,034.5 mL/h"
same,CL/F,[4]; fed (high-fat meal),"26,917.9 mL/h"
same,"decrease each in mean Cmax, AUClast, and AUCinf","[4]; high-fat meal vs fasted, 30 mg",approximately 45%
same,decrease in exposure with a high-fat meal relative to fasted state,[4]; ledipasvir alone in a conventional formulation,roughly 2 fold
same,share of maximal antiviral response (Emax PK/PD model),"HCV; 30 mg dose, genotype 1a HCV infected patients",> 95%
same,breakthrough (BT) rate,"HCV; 30 mg, 11/33",33%
same,breakthrough (BT) rate,"HCV; 90 mg, 9/74",12%
same,% GMR (90% CI) of AUCinf,[5]; [8],"95.7 (92.1, 99.5) %"
same,% GMR (90% CI) of AUClast,[5]; [8],"96.5 (89.9, 104) %"
same,% GMR (90% CI) of Cmax,[5]; [8],"95.5 (91.9, 99.1) %"
same,AUC(0-inf),[5]; [9],11900 ng·h/mL
same,AUC(0-inf),"[5]; po, plasma analyte, Sofosbuvir + Ledipasvir, n = 17, mean (% CV)",11400 ng·h/mL
same,Cmax,[5]; [9],375 ng/mL
same,% GMR (90% CI) [Moderate-Fat/Fasted] of AUCinf,[6]; Sofosbuvir/Ledipasvir Tablet,"115 (99.4, 134) %"
same,% GMR (90% CI) [Moderate-Fat/Fasted] of AUClast,[6]; Sofosbuvir/Ledipasvir Tablet,"114 (98.0, 133) %"
same,% GMR (90% CI) [Moderate-Fat/Fasted] of Cmax,[6]; Sofosbuvir/Ledipasvir Tablet,"109 (93.5, 126) %"
same,GMR (90% CI) [High-Fat/Fasted] of AUCinf,[6]; Sofosbuvir/Ledipasvir Tablet,"103 (88.5, 119) %"
same,GMR (90% CI) [High-Fat/Fasted] of AUClast,[6]; Sofosbuvir/Ledipasvir Tablet,"104 (88.8, 121) %"
same,GMR (90% CI) [High-Fat/Fasted] of Cmax,[6]; Sofosbuvir/Ledipasvir Tablet,"88.2 (75.8, 103) %"
same,AUC(0-inf),[6]; [10],10600 ng·h/mL
same,AUC(0-inf),[6]; [11],9220 ng·h/mL
same,AUC(0-inf),[6]; [12],10600 ng·h/mL
same,AUC(0-t),[6]; [10],8600 ng·h/mL
same,AUC(0-t),[6]; [11],7550 ng·h/mL
same,AUC(0-t),[6]; [12],8650 ng·h/mL
same,Cmax,[6]; [10],324 ng/mL
same,Cmax,[6]; [11],255 ng/mL
same,Cmax,[6]; [12],319 ng/mL
same,effect of food on pharmacokinetics,"[6]; sofosbuvir/ledipasvir composition, fed vs fasted",does not appear to be altered by food
